These are literature values, as cited in patent US6365216B1, “Particles of N-[N-(3,3-dimethylbutyl)-L-α-aspartyl]-L-phenylalanine 1-methyl ester” (The NutraSweet Company, priority 1999, dated 2002).

The conditions of the data set: times sweeter than sugar (sucrose).

For the compound `COC(=O)C(Cc1ccccc1)NC(=O)C(CC(=O)O)NCCC(C)(C)C` [neotame, N-[N-(3,3-dimethylbutyl)-L-α-aspartyl]-L-phenylalanine 1-methyl ester], the sweetness potency result is reported as “about 8000 X”.
